According to PMC11345766, “Computational Design of Pore-Forming Peptides with Potent Antimicrobial and Anticancer Activities” (Journal of Medicinal Chemistry, 2024):
Several values for one entry are separate records, joined by “and”; a condition that tells them apart may be missing. Identical values can stand only once. Ends that are not written are not given here.

Columns and labels:
E. faecalis UCN41 (VAN) = settings: E. faecalis / UCN41 / VAN / Prot. b; Prot. b
[1] = test system: E. faecium ATCC 19434T (WT); settings: E. faecium / ATCC 19434T / WT / Prot. b; Prot. b
[2] = test system: E. faecium BM4147 (AMX, VAN); settings: E. faecium / BM4147 / AMX, VAN / Prot. b; Prot. b
[3] = test system: K. pneumoniae ATCC 700603 (ESBL); settings: K. pneumoniae / ATCC 700603 / ESBL / Prot. a; Prot. a
[4] = test system: K. pneumoniae E1267 (GEN, AMI); settings: K. pneumoniae / E1267 / GEN, AMI / Prot. c; Prot. c
[5] = test system: P. aeruginosa K12 (AMI, IMI, MER, CTZ, PIT); settings: P. aeruginosa / K12 / AMI, IMI, MER, CTZ, PIT / Prot. c; Prot. c
[6] = test system: P. aeruginosa NCTC 13437 (ESBL); settings: P. aeruginosa / NCTC 13437 / ESBL / Prot. a; Prot. a
[7] = test system: S. aureus NRS1 (MRSA or VISA); settings: S. aureus / NRS1 / MRSA or VISA / Prot. a; Prot. a
[8] = Calcein dye leakage assay from LUVs; assay type: biochemical; settings: P:L 1:100; pH 7.4
Procedure, shortened: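 POPC:POPG (1:1) LUVs, extruded at 100 nm, loaded with 35 mM self-quenching calcein; free dye removed. Peptide 0.1 mM and LUVs 0.02 mM in PBS with 100 mM NaCl, P:L 1:100 to 1:10. Fluorescence at 495/520 nm, normalized to 100% leakage by 10% Triton X-100.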

S. carnosus (CCM 4838T) = test: microbe, parasite or virus in culture; assay type: cell-based, Staphylococcus carnosus; settings: CCM 4838, 24 h; read-out: Antimicrobial activity (MIC) S. carnosus (CCM 4838T)
Procedure, shortened: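 Bacteria were grown on MHA for 24 h, subcultured in MHB for 6 h at 37 °C and diluted to 10^6 CFU/mL. Compounds were serially diluted from 50 to 0.1 μM, inoculated and incubated for 24 h at 37 °C. MIC was the lowest concentration with no visible turbidity.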

[9] = test system: A. baumannii (ATCC 19606); test: Neutropenic murine deep thigh infection model; assay type: in vivo, mouse; settings: single intraperitoneal dose at 10 times the MIC; four days after treatment
Text: Mice were euthanized 4 days postinfection (day 8).
Each experimental group comprised three mice.

[10] = test system: cytoplasmic membranes of ESKAPEE pathogens; test: Cytoplasmic membrane depolarization assay, DiSC3-(5); assay type: cell-based; settings: both Gram-negative and Gram-positive bacteria; peptides at their MICs
Description: First, we investigated the ability of the peptides to depolarize the cytoplasmic membranes of ESKAPEE pathogens. […] Bacteria were incubated with 3,3′-dipropylthiadicarbocyanine iodide [DiSC3-(5)] dye, and the dye fluorescence was measured after peptide treatment. DiSC3-(5) is sensitive to transmembrane potential changes. It accumulates in the cytoplasmic membrane with quenched fluorescence, and when the membrane potential becomes unbalanced, the dye molecules translocate to the outside environment, resulting in increased fluorescence.[56] The three potent AMPs (LP1, LP18, and LP28) and the H-variant (LP40) depolarized the cytoplasmic membrane of both Gram-negative and Gram-positive bacteria at their MICs.
The cytoplasmic membrane depolarization activity of the peptides was determined by measuring the fluorescence of membrane-potential-sensitive dye DiSC3-(5). A. baumannii ATCC 19606, E. coli ATCC 11775, K. pneumoniae ATCC 13883, P. aeruginosa PAO1, S. aureus ATCC 12600, and E. faecium ATCC 700221 were grown to mid log phase (OD600 = 0.5) at 37 °C and then centrifuged (10,000 rpm at 4 °C for 10 min). Cells were washed twice with a buffer containing 20 mM glucose and 5 mM HEPES (pH 7.2) and diluted 1:10 (OD600 = 0.05) in a buffer with 0.1 M KCl, […], and 5 mM HEPES (pH 7.2). Fluorescence was recorded at the excitation and emission wavelengths of 622 and 670 nm, respectively. Bacterial solution (100 μL) was incubated for 15 min with 20 nM of DiSC3-(5) until fluorescence reached a plateau. Changes in transmembrane potential were monitored by observing the difference in fluorescence emission intensity after adding peptides (100 μL at their MICs) for 45 min. Assay was performed in triplicate.

Row | Substance | MIC (E. faecalis UCN41 (VAN)) [µM] | MIC [1] [µM] | MIC [2] [µM] | MIC [3] [µM] | MIC [4] [µM] | MIC [5] [µM] | MIC [6] [µM] | MIC [7] [µM] | Calcein leakage (%) from LUVs at P:L 1:100 (mol/mol) [8] | MIC (S. carnosus (CCM 4838T)) [µM] | Reduction of bacterial load [9] | Depolarization of the cytoplasmic membrane [10]
1 | KKKKLKKILKKLFQFINQLDNQLQDIKKKK-NH2 [LP18] | > 32 | 15 | 4 | 4 | > 32 | > 32 | 11 | > 16 | 93.7 ± 3.1% | 0.2 | did not significantly reduce the bacterial load | depolarized
2 | KKKKLKKILKKLFQFINQLDNQLQDIKQNK-NH2 [LP1] | > 32 | > 32 | 16 | 4 | > 32 | > 32 | > 16 | > 16 | 87% and 87.1 ± 2.7% | 0.8 | two to three orders of magnitude | depolarized
3 | H-HHHHLKKILKKLFQFINQLDNQLQDIHHHH-OH [LP40] | – | – | – | – | – | – | – | – | 102.5 ± 1.2% | > 50 | did not significantly reduce the bacterial load | depolarized
